Patent US20120029187A1, “HALOALKYLSULFONANILIDE DERIVATIVE” (Nissan Chemical Industries, Ltd., priority 2009, published 2012)

Columns and labels:
Type in all cases: in vivo
[1] = tested on: water foxtail; experiment: Test Example 4: herbicidal effect in foliage treatment; details: dose 3.2 g/a, three weeks after application
How it was run: (§1)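 14-day greenhouse-grown plants (25–30° C) sprayed on foliage with diluted EC; dose as g/a; effect graded after 3 weeks.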

[2] = tested on: posumbu knotweed; experiment: as above; details: dose 3.2 g/a, three weeks after application
How it was run: as §1

[3] = tested on: velvetleaf; experiment: as above; details: dose 3.2 g/a, three weeks after application
How it was run: as §1

[4] = tested on: common chickweed; experiment: as above; details: dose 3.2 g/a, three weeks after application
How it was run: as §1

[5] = tested on: redroot pigweed; experiment: as above; details: dose 3.2 g/a, three weeks after application
How it was run: as §1

[6] = tested on: common ragweed; experiment: as above; details: dose 3.2 g/a, three weeks after application
How it was run: as §1

[7] = tested on: Italian ryegrass; experiment: as above; details: dose 3.2 g/a, three weeks after application
How it was run: as §1

[8] = tested on: large crabgrass; experiment: as above; details: dose 3.2 g/a, three weeks after application
How it was run: as §1

[9] = tested on: common lambsquater; experiment: as above; details: dose 3.2 g/a, three weeks after application
How it was run: as §1

[10] = tested on: barnyardgrass; experiment: as above; details: dose 3.2 g/a, three weeks after application
How it was run: as §1

[11] = tested on: beadstraw; experiment: as above; details: dose 3.2 g/a, three weeks after application
How it was run: as §1

[12] = tested on: giant foxtail; experiment: as above; details: dose 3.2 g/a, three weeks after application
How it was run: as §1

[13] = tested on: transplanted rice; experiment: Test Example 1: preemergence treatment under submerged conditions, effect on crop; details: dose 2.52 g/a
How it was run: (§2)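 Weed seeds and 2.5-leaf rice seedlings shared each flooded cup of alluvial soil. Dosing, expressed as g per are, was by pouring water-diluted emulsifiable concentrate onto the surface on sowing day. Mortality was graded 0 to 5 after three weeks' growth.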

[14] = tested on: water foxtail; experiment: Test Example 3: herbicidal effects in soil treatment; details: dose 3.2 g/a
How it was run: (§3)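 Seeds were sown in sterilized diluvial soil and covered with about 1.5 cm of soil. Compounds, formulated as emulsifiable concentrates and diluted with water, were sprayed evenly over the soil surface at set doses in g/a. Herbicidal effect was scored on a rating scale three weeks later.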

[15] = tested on: posumbu knotweed; experiment: as above; details: dose 3.2 g/a
How it was run: as §3

[16] = tested on: velvetleaf; experiment: as above; details: dose 3.2 g/a
How it was run: as §3

[17] = tested on: common chickweed; experiment: as above; details: dose 3.2 g/a
How it was run: as §3

[18] = tested on: redroot pigweed; experiment: as above; details: dose 3.2 g/a
How it was run: as §3

[19] = tested on: common ragweed; experiment: as above; details: dose 3.2 g/a
How it was run: as §3

[20] = tested on: Italian ryegrass; experiment: as above; details: dose 3.2 g/a
How it was run: as §3

[21] = tested on: large crabgrass; experiment: as above; details: dose 3.2 g/a
How it was run: as §3

[22] = tested on: common lambsquater; experiment: as above; details: dose 3.2 g/a
How it was run: as §3

[23] = tested on: barnyardgrass; experiment: as above; details: dose 3.2 g/a
How it was run: as §3

[24] = tested on: giant foxtail; experiment: as above; details: dose 3.2 g/a
How it was run: as §3

[25] = tested on: ducksalad; experiment: Test Example 2: herbicidal effects during the vegetation period under submerged conditions; details: treatment during the vegetation period under submerged conditions; dose 2.52 g/a
How it was run: (§4)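 Barnyardgrass, bulrush and ducksalad were co-sown in alluvial soil flooded to 4 cm and grown in a greenhouse at 25 to 30° C. At the 1- or 2-leaf stage, water-diluted emulsifiable concentrates went onto the water surface at set doses (g/a). Herbicidal effect was scored three weeks later on a graded scale.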

[26] = tested on: barnyardgrass; experiment: as above; details: treatment during the vegetation period under submerged conditions; dose 2.52 g/a
How it was run: as §4

[27] = tested on: bulrush; experiment: as above; details: treatment during the vegetation period under submerged conditions; dose 2.52 g/a
How it was run: as §4

[28] = tested on: ducksalad; experiment: Test Example 1: herbicidal effects in preemergence treatment under submerged conditions; details: dose 2.52 g/a
How it was run: as §2

[29] = tested on: barnyardgrass; experiment: as above; details: dose 2.52 g/a
How it was run: as §2

[30] = tested on: bulrush; experiment: as above; details: dose 2.52 g/a
How it was run: as §2

| SMILES | G: water foxtail, herbicidal effect [1] | M: posumbu knotweed, herbicidal effect [2] | I: velvetleaf, herbicidal effect [3] | N: common chickweed, herbicidal effect [4] | K: redroot pigweed, herbicidal effect [5] | J: common ragweed, herbicidal effect [6] | H: Italian ryegrass, herbicidal effect [7] | D: large crabgrass, herbicidal effect [8] | L: common lambsquater, herbicidal effect [9] | A: barnyardgrass, herbicidal effect [10] | O: beadstraw, herbicidal effect [11] | E: giant foxtail, herbicidal effect [12] | a: transplanted rice, effect on crop (evaluation scale 0-5) [13] | G: water foxtail, herbicidal effect (evaluation scale 0-5) [14] | M: posumbu knotweed, herbicidal effect (evaluation scale 0-5) [15] | I: velvetleaf, herbicidal effect (evaluation scale 0-5) [16] | N: common chickweed, herbicidal effect (evaluation scale 0-5) [17] | K: redroot pigweed, herbicidal effect (evaluation scale 0-5) [18] | J: common ragweed, herbicidal effect (evaluation scale 0-5) [19] | H: Italian ryegrass, herbicidal effect (evaluation scale 0-5) [20] | also measured |
| --- | --- | --- | --- | --- | --- | --- | --- | --- | --- | --- | --- | --- | --- | --- | --- | --- | --- | --- | --- | --- | --- |
| CCOC(=O)N(c1ccccc1CN1COC(C)(COC)CC1=O)S(=O)(=O)C(F)(F)F (stereo not drawn) [II-55] | 5 (mortality of 90% or above (nearly complete death)) | 3 (mortality of at least 40% and less than 70%) | 5 (mortality of 90% or above (nearly complete death)) | 4 (mortality of at least 70% and less than 90%) | 0 (mortality of less than 5% (almost ineffective)) | 4 (mortality of at least 70% and less than 90%) | 5 (mortality of 90% or above (nearly complete death)) | 4 (mortality of at least 70% and less than 90%) | 4 (mortality of at least 70% and less than 90%) | 5 (mortality of 90% or above (nearly complete death)) | 4 (mortality of at least 70% and less than 90%) | 5 (mortality of 90% or above (nearly complete death)) | 0 (mortality of less than 5% (almost ineffective)) | 5 (mortality of 90% or above (nearly complete death)) | 5 (mortality of 90% or above (nearly complete death)) | 5 (mortality of 90% or above (nearly complete death)) | 5 (mortality of 90% or above (nearly complete death)) | 3 (mortality of at least 40% and less than 70%) | 5 (mortality of 90% or above (nearly complete death)) | 5 (mortality of 90% or above (nearly complete death)) | D: large crabgrass, herbicidal effect (evaluation scale 0-5) [21]: 5 (mortality of 90% or above (nearly complete death)); L: common lambsquater, herbicidal effect (evaluation scale 0-5) [22]: 4 (mortality of at least 70% and less than 90%); A: barnyardgrass, herbicidal effect (evaluation scale 0-5) [23]: 5 (mortality of 90% or above (nearly complete death)); E: giant foxtail, herbicidal effect (evaluation scale 0-5) [24]: 5 (mortality of 90% or above (nearly complete death)); C: ducksalad, herbicidal effect (evaluation scale 0-5) [25]: 5 (mortality of 90% or above (nearly complete death)); A: barnyardgrass, herbicidal effect (evaluation scale 0-5) [26]: 5 (mortality of 90% or above (nearly complete death)); B: bulrush, herbicidal effect (evaluation scale 0-5) [27]: 5 (mortality of 90% or above (nearly complete death)); C: ducksalad, herbicidal effect (evaluation scale 0-5) [28]: 5 (mortality of 90% or above (nearly complete death)); A: barnyardgrass, herbicidal effect (evaluation scale 0-5) [29]: 5 (mortality of 90% or above (nearly complete death)); B: bulrush, herbicidal effect (evaluation scale 0-5) [30]: 5 (mortality of 90% or above (nearly complete death)) |
| CCOC(=O)N(c1ccccc1CN1COC(C)(CC(F)(F)F)CC1=O)S(=O)(=O)C(F)(F)F (stereo not drawn) [II-53] | 5 (mortality of 90% or above (nearly complete death)) | 4 (mortality of at least 70% and less than 90%) | 4 (mortality of at least 70% and less than 90%) | 5 (mortality of 90% or above (nearly complete death)) | 0 (mortality of less than 5% (almost ineffective)) | 3 (mortality of at least 40% and less than 70%) | 4 (mortality of at least 70% and less than 90%) | 3 (mortality of at least 40% and less than 70%) | 2 (mortality of at least 20% and less than 40%) | 4 (mortality of at least 70% and less than 90%) | 5 (mortality of 90% or above (nearly complete death)) | 3 (mortality of at least 40% and less than 70%) | 0 (mortality of less than 5% (almost ineffective)) | 5 (mortality of 90% or above (nearly complete death)) | 5 (mortality of 90% or above (nearly complete death)) | 5 (mortality of 90% or above (nearly complete death)) | 5 (mortality of 90% or above (nearly complete death)) | 0 (mortality of less than 5% (almost ineffective)) | 4 (mortality of at least 70% and less than 90%) | 3 (mortality of at least 40% and less than 70%) | D: large crabgrass, herbicidal effect (evaluation scale 0-5) [21]: 5 (mortality of 90% or above (nearly complete death)); L: common lambsquater, herbicidal effect (evaluation scale 0-5) [22]: 0 (mortality of less than 5% (almost ineffective)); A: barnyardgrass, herbicidal effect (evaluation scale 0-5) [23]: 5 (mortality of 90% or above (nearly complete death)); E: giant foxtail, herbicidal effect (evaluation scale 0-5) [24]: 5 (mortality of 90% or above (nearly complete death)); C: ducksalad, herbicidal effect (evaluation scale 0-5) [25]: 5 (mortality of 90% or above (nearly complete death)); A: barnyardgrass, herbicidal effect (evaluation scale 0-5) [26]: 5 (mortality of 90% or above (nearly complete death)); B: bulrush, herbicidal effect (evaluation scale 0-5) [27]: 5 (mortality of 90% or above (nearly complete death)); C: ducksalad, herbicidal effect (evaluation scale 0-5) [28]: 5 (mortality of 90% or above (nearly complete death)); A: barnyardgrass, herbicidal effect (evaluation scale 0-5) [29]: 5 (mortality of 90% or above (nearly complete death)); B: bulrush, herbicidal effect (evaluation scale 0-5) [30]: 5 (mortality of 90% or above (nearly complete death)) |
